Test results taken from PubChem BioAssay AID256 (DTP/NCI, 2004).
“And” between values parts separate entries of the source, which are not always exact repeats. Identical values can stand only once. Inconclusive results and toxic doses are left out. The calls were made as follows: active = survival T/C of 150% or more; inactive = T/C below 125% in these data.

Test system: CD2F1 mice, L1210 leukemia ip, survival T/C
Experiment: NCI In Vivo Anticancer Drug Screen. Data for tumor model L1210 Leukemia (intraperitoneal) in CD2F1 (CDF1) mice
Details: higher = longer survival
Method in brief: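 Mice carrying a transplanted tumor received test compound or vehicle alone. The value is the measurement in the treated group divided by that in the vehicle-treated control group.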

[1] = endpoint: mean survival time, dose: 100.0 mg/kg/injection, schedule: Q04DX002 (ip), vehicle: saline with Tween-80
[2] = endpoint: mean survival time, dose: 200.0 mg/kg/injection, schedule: Q04DX002 (ip), vehicle: saline with Tween-80
[3] = endpoint: mean survival time, dose: 400.0 mg/kg/injection, schedule: Q04DX002 (ip), vehicle: saline with Tween-80
[4] = endpoint: mean survival time, dose: 50.0 mg/kg/injection, schedule: Q04DX003 (ip), vehicle: saline
[5] = endpoint: mean survival time, dose: 100.0 mg/kg/injection, schedule: Q01DX009 (ip), vehicle: saline with Tween-80
[6] = endpoint: mean survival time, dose: 100.0 mg/kg/injection, schedule: Q04DX003 (ip), vehicle: saline with Tween-80
[7] = endpoint: mean survival time, dose: 200.0 mg/kg/injection, schedule: Q01DX009 (ip), vehicle: saline with Tween-80
[8] = endpoint: mean survival time, dose: 200.0 mg/kg/injection, schedule: Q04DX003 (ip), vehicle: saline with Tween-80
[9] = endpoint: mean survival time, dose: 400.0 mg/kg/injection, schedule: Q01DX009 (ip), vehicle: saline with Tween-80
[10] = endpoint: mean survival time, dose: 400.0 mg/kg/injection, schedule: Q04DX003 (ip), vehicle: saline with Tween-80
[11] = endpoint: mean survival time, dose: 100.0 mg/kg/injection, schedule: Q01DX001 (ip), vehicle: saline
[12] = endpoint: mean survival time, dose: 100.0 mg/kg/injection, schedule: Q04DX003 (ip), vehicle: saline
[13] = endpoint: mean survival time, dose: 100.0 mg/kg/injection, schedule: Q01DX001 (ip), vehicle: saline with Tween-80
[14] = endpoint: mean survival time, dose: 200.0 mg/kg/injection, schedule: Q01DX001 (ip), vehicle: saline with Tween-80
[15] = endpoint: mean survival time, dose: 400.0 mg/kg/injection, schedule: Q01DX001 (ip), vehicle: saline with Tween-80
[16] = endpoint: mean survival time, dose: 25.0 mg/kg/injection, schedule: Q01DX009 (ip), vehicle: other
[17] = endpoint: mean survival time, dose: 50.0 mg/kg/injection, schedule: Q01DX009 (ip), vehicle: other
[18] = endpoint: mean survival time, dose: 100.0 mg/kg/injection, schedule: Q01DX009 (ip), vehicle: other
[19] = endpoint: mean survival time, dose: 200.0 mg/kg/injection, schedule: Q01DX009 (ip), vehicle: other

Measured: T/C

CC(COCc1ccccc1)COP(N)(=O)N(CCCl)CCCl (stereo not drawn)
inactive: endpoint: mean survival time, dose: 15.62 mg/kg/injection, schedule: Q01DX001 (ip), vehicle: DMSO 97 % of control | endpoint: mean survival time, dose: 31.3 mg/kg/injection, schedule: Q01DX001 (ip), vehicle: DMSO 98 % of control | endpoint: mean survival time, dose: 62.5 mg/kg/injection, schedule: Q01DX001 (ip), vehicle: DMSO 101 % of control | endpoint: mean survival time, dose: 125.0 mg/kg/injection, schedule: Q01DX001 (ip), vehicle: DMSO 111 % of control | endpoint: mean survival time, dose: 250.0 mg/kg/injection, schedule: Q01DX001 (ip), vehicle: DMSO 103 % of control | endpoint: mean survival time, dose: 500.0 mg/kg/injection, schedule: Q01DX001 (ip), vehicle: DMSO 101 % of control

COc1cc(C(=O)NCCCCCC(=O)O)cc(OC)c1OC
inactive: [1] 91 % of control | [2] 95 % of control | [3] 88 % of control

CC(=O)C(Cl)C(C)=O.CC(=O)C(Cl)C(C)=O.CO.CO.[Ni]
inactive: [4] 108 % of control

CCOC(=O)N1C(C(=O)c2ccc(C)cc2)N(C2CCCCC2)C(c2ccccc2)N1C(=O)OCC (stereo not drawn)
inactive: [5] 90 % of control | [6] 97 % of control | [7] 93 % of control | [8] 92 % of control | [9] 90 % of control | [10] 93 % of control

Cc1ccc(/C=C/C(=O)/C=C/c2ccc(C)o2)o1
inactive: endpoint: median survival time, dose: 25.0 mg/kg/injection, schedule: Q01DX005 (ip), vehicle: saline with Tween-80 98 % of control | endpoint: median survival time, dose: 50.0 mg/kg/injection, schedule: Q01DX005 (ip), vehicle: saline with Tween-80 92 % of control | endpoint: median survival time, dose: 100.0 mg/kg/injection, schedule: Q01DX005 (ip), vehicle: saline with Tween-80 100 % of control | endpoint: median survival time, dose: 200.0 mg/kg/injection, schedule: Q01DX005 (ip), vehicle: saline with Tween-80 103 % of control | endpoint: median survival time, dose: 400.0 mg/kg/injection, schedule: Q01DX005 (ip), vehicle: saline with Tween-80 98 % of control

[NH-]c1ncnc2c1ncn2C1OC(CO)C(O)C1O.[NH-]c1ncnc2c1ncn2C1OC(CO)C(O)C1O.[Pt+2] (stereo not drawn)
inactive: endpoint: mean survival time, dose: 12.5 mg/kg/injection, schedule: Q04DX003 (ip), vehicle: saline with Tween-80 92 % of control | endpoint: mean survival time, dose: 25.0 mg/kg/injection, schedule: Q04DX003 (ip), vehicle: saline with Tween-80 95 % of control | endpoint: mean survival time, dose: 50.0 mg/kg/injection, schedule: Q04DX003 (ip), vehicle: saline with Tween-80 92 % of control | [6] 89 % of control | [8] 86 % of control

O=C(/C=C/c1ccc(Cl)cc1)/C=C/c1ccc(Cl)cc1
inactive: endpoint: mean survival time, dose: 50.0 mg/kg/injection, schedule: Q01DX009 (ip), vehicle: Klucel (hydroxypropylcellulose) (HPC) 94 % of control | endpoint: mean survival time, dose: 100.0 mg/kg/injection, schedule: Q01DX009 (ip), vehicle: Klucel (hydroxypropylcellulose) (HPC) 98 % of control | endpoint: mean survival time, dose: 200.0 mg/kg/injection, schedule: Q01DX009 (ip), vehicle: Klucel (hydroxypropylcellulose) (HPC) 94 % of control

CS(=O)(=O)OCCCOS(C)(=O)=O
inactive: endpoint: mean survival time, dose: 12.5 mg/kg/injection, schedule: Q01DX009 (ip), vehicle: saline with Tween-80 107 % of control | endpoint: mean survival time, dose: 25.0 mg/kg/injection, schedule: Q01DX009 (ip), vehicle: saline with Tween-80 116 % of control | endpoint: mean survival time, dose: 50.0 mg/kg/injection, schedule: Q01DX001 (ip), vehicle: saline 96 % of control | endpoint: mean survival time, dose: 50.0 mg/kg/injection, schedule: Q01DX009 (ip), vehicle: saline with Tween-80 116 % of control | [11] 100 % of control | [5] 105 % of control | [12] 105 % of control | endpoint: mean survival time, dose: 200.0 mg/kg/injection, schedule: Q01DX001 (ip), vehicle: saline 102 % of control | endpoint: mean survival time, dose: 200.0 mg/kg/injection, schedule: Q04DX003 (ip), vehicle: saline 106 % of control | endpoint: mean survival time, dose: 400.0 mg/kg/injection, schedule: Q01DX001 (ip), vehicle: saline 100 % of control | endpoint: mean survival time, dose: 400.0 mg/kg/injection, schedule: Q04DX003 (ip), vehicle: saline 110 % of control

O=C(COc1ccc(Cl)cc1C(=O)O)NCc1ccc(NC(=O)Nc2ccc(S(=O)(=O)F)cc2)cc1
inactive: [13] 96 % of control | [14] 91 % of control | [15] 91 % of control

CC(=O)SC(c1ccccc1)(c1ccccc1)c1ccccc1
inactive: [6] 95 % of control and 103 % of control | [8] 91 % of control and 97 % of control | [10] 90 % of control and 100 % of control

SCc1nc2ccccc2[nH]1
inactive: [13] 96 % of control | [14] 97 % of control

CCOC(=O)N1C2c3ccccc3C(c3ccccc32)N1C(=O)OCC
inactive: [5] 94 % of control | [6] 95 % of control | [7] 89 % of control | [8] 98 % of control | [10] 93 % of control

Cn1c(=O)c2[nH]c(Cl)nc2n(C)c1=O
inactive: endpoint: mean survival time, dose: 12.5 mg/kg/injection, schedule: Q01DX005 (ip), vehicle: water 92 % of control | endpoint: mean survival time, dose: 25.0 mg/kg/injection, schedule: Q01DX005 (ip), vehicle: water 93 % of control | endpoint: mean survival time, dose: 50.0 mg/kg/injection, schedule: Q01DX005 (ip), vehicle: water 103 % of control | endpoint: mean survival time, dose: 100.0 mg/kg/injection, schedule: Q01DX005 (ip), vehicle: water 87 % of control

Cc1ccccc1NC(=O)Oc1c(Cl)cc(Cl)c2ccccc12
inactive: [1] 89 % of control | [2] 93 % of control | [3] 101 % of control

Cc1ccc(-c2nc(-c3ccccc3)[nH]c(=O)c2CCO)cc1
inactive: [6] 94 % of control | [8] 92 % of control | [10] 88 % of control

CCC(C)C(=O)c1ccccc1 (stereo not drawn)
inactive: endpoint: mean survival time, dose: 50.0 mg/kg/injection, schedule: Q01DX001 (ip), vehicle: saline with Tween-80 100 % of control | [13] 95 % of control | [14] 100 % of control

COc1ccc(NC(=O)Nc2ccc(OC)cc2OC)cc1
inactive: [1] 86 % of control | [2] 90 % of control | [3] 86 % of control

Cc1cc(N/N=c2/c3ccccc3n(O)c3c2ccc2ccccc23)ccc1O
inactive: [6] 104 % of control | [8] 104 % of control | [10] 104 % of control

CC(=O)CS(=O)(=O)CC(N)=O
inactive: endpoint: mean survival time, dose: 100.0 mg/kg/injection, schedule: Q01DX001 (ip), vehicle: saline sonified 96 % of control | endpoint: mean survival time, dose: 200.0 mg/kg/injection, schedule: Q01DX001 (ip), vehicle: saline sonified 96 % of control | endpoint: mean survival time, dose: 400.0 mg/kg/injection, schedule: Q01DX001 (ip), vehicle: saline sonified 97 % of control

OCC(O)C(O)C(O)C(O)/C=N\Nc1ccccc1 (stereo not drawn)
inactive: [13] 100 % of control | [14] 100 % of control | [15] 95 % of control

CCO/C=C1\SC(=S)N(Cc2ccccc2)C1=O
inactive: [16] 105 % of control | [17] 115 % of control | [5] 89 % of control

CC1=CC(=O)OC1CC(=O)O (stereo not drawn)
inactive: endpoint: mean survival time, dose: 50.0 mg/kg/injection, schedule: Q01DX009 (ip), vehicle: saline 97 % of control | endpoint: mean survival time, dose: 100.0 mg/kg/injection, schedule: Q01DX009 (ip), vehicle: saline 97 % of control | endpoint: mean survival time, dose: 200.0 mg/kg/injection, schedule: Q01DX009 (ip), vehicle: saline 103 % of control

Oc1ccc(/C=N\N=C\c2ccc(O)cc2)cc1
inactive: [5] 86 % of control | [6] 96 % of control | [7] 86 % of control | [8] 89 % of control | [9] 91 % of control | [10] 96 % of control

COc1ccc(OC)c2c1CCC(=O)C2
inactive: endpoint: mean survival time, dose: 12.5 mg/kg/injection, schedule: Q01DX009 (ip), vehicle: other 102 % of control | [16] 104 % of control | [17] 102 % of control | [18] 107 % of control | [19] 107 % of control

CN1CCCN(C(=S)S)CC1
inactive: endpoint: mean survival time, dose: 25.0 mg/kg/injection, schedule: Q04DX003 (ip), vehicle: saline 98 % of control | [4] 103 % of control | [12] 103 % of control

CCN1CCC(C(C)(C)C)CC1
inactive: endpoint: mean survival time, dose: 100.0 mg/kg/injection, schedule: Q01DX001 (ip), vehicle: acetone 102 % of control

O=C1CN(c2ccc3ccccc3c2)NO1
inactive: [6] 93 % of control | [8] 93 % of control

NNC(=O)CCCCCCCCCCCCCCO
inactive: [14] 87 % of control | [15] 90 % of control

CC(C)C[P+](c1ccccc1)(c1ccccc1)c1ccccc1
inactive: endpoint: mean survival time, dose: 75.0 mg/kg/injection, schedule: Q01DX001 (ip), vehicle: other 96 % of control

c1ccc2c(c1)[nH]c1c3[n+](ccc12)CCCC3
inactive: [11] 119 % of control

Nc1nc(Br)c(Br)nc1N
inactive: [18] 92 % of control | [19] 103 % of control | endpoint: mean survival time, dose: 400.0 mg/kg/injection, schedule: Q01DX009 (ip), vehicle: other 95 % of control
